In patent US3995061A, “Pharmaceutical composition and method of using the same” (Chugai Seiyaku Kabushiki Kaisha, priority 1974, dated 1976):
Entries after “also recorded” stand apart in the source; their conditions may differ.

Key:
[1] = Toxicity by continuous administration for 10 days (body weight); format: in vivo, Wister-Imamichi strain male rats; conditions: rat, 10 mg/head oral once a day
Protocol: Wister-Imamichi strain male rats weighing 230 ± 30 g were divided into four groups of 10 members each, 3 groups of which were orally administered with 4-O-methylascochlorin in a dose of 10 mg/head, 4-O-methylascochlorin in 20 mg/head and ascochlorin in 10 mg/head, respectively, as a suspension in 2% gum arabic aqueous solution once a day for 10 days. The remaining group was administered with 2% gum arabic aqueous solution, the dose and way of administration being identical to those disclosed above. The increase in body weight of the rats of each group was observed every day during the administration. The results are shown in the graph of FIG. 1.

Cholesterol in serum = test: Serum cholesterol lowering activity in rats on high-fat feed, single oral dose; format: in vivo, Wister-Imamich strain male rats; conditions: rat, 75 mg/kg oral, 6 hours after administration
From the text: The cholesterol lowering activity of the ascochlorin derivatives of this invention was observed by the use of Wister-Imamich strain male rats weighing 230 ± 30 g which had been bred with the use of high-fat feed comprising 1000 g of powdery chow CLEA CE-2 (sold by NIHON CLEA KABUSHIKI KAISHA) admixed with 10 g of cholesterol, 95 g of hydrogenated coconut oil, 2 g of cholic acid, 150 g of milk casein and 671 g of sucrose.
The rats were divided into groups of five members each, and orally administered with a different ascochlorin derivative as a suspension in gum arabic aqueous solution in a dose of 75 mg/kg.body weight. The rats were kept from eating food, and 6 hours after the administration, the blood of each rat was sampled from its heart. The total amount of cholesterol in serum was determined by a modified Zurkowski method (Clinical Chemistry, 10, 451, 1964) with the use of a colorimeter for blood analysis (sold by KYOTO DAIICHI KAGAKU).

[2] = especially noticeable when continuously administered; cited from earlier work
Serum Lipid = test: Hypolipidemic activity: change in level of serum lipid, 30 days, high-fat feed; format: in vivo, Wister strain rats; conditions: rat
Acute toxicity, mouse = conditions: in vivo
From the text: (§1) Acute toxicity of the ascochlorin derivatives was observed by the use of Wister-Imamichi strain male rats weighing 230 ± 30 g and ddY strain male and female mice (5 weeks old) weighing 20 ±3 g which were divided into groups of 10 members each. Japanese native male rabbits weighing 2 kg ± 300 g which were divided into groups of five members each were also used. The test animals were orally or intraperitoneally administered with a different ascochlorin derivative as a suspension in 5% gum arabic aqueous solution, and the toxicity was compared with that of control in which ascochlorin was used.

Acute toxicity, rat = conditions: in vivo, male
From the text: as §1

[3] = Japanese Patent No. 585,252 and U.S. Pat. No. 3,546,073; cited from earlier work
blood platelet = test: Aggregation inhibition activity of blood platelet (ADP-induced, platelet rich plasma of orally dosed rats); format: in vivo, Wister-Imamich strain male rats; conditions: rat, 20 mg/kg oral, 6 hours; adenosine-5'-diphosphate 10^-5 M in platelet rich plasma
Protocol: In this Example Wister-Imamich strain male rats weighing 230 ± 30 g which had been bred with the use of a commercial chow, CLEA CE-2 were used.
The rats were divided into groups of five members each, and orally administered with a different ascochlorin derivative as a suspension in 2% gum arabic aqueous solution in a dose of 20 mg/kg.body weight. Six hours after the administration, the blood of each rat was sampled from the heart and after the addition of citric acid, the blood sample was centrifuged at 1,500 r.p.m. for 10 minutes to obtain platelet rich plasma. The anti-aggregation effect when the concentration of adenosine-5'-diphosphatein the platelet rich plasma is ultimately 10^^-5 M is shown in Table II.
As positive controls, ascochlorin, ethyl-α-(p-chlorophenoxy) isobutylate and acetyl salicyclic acid were used. The aggregation inhibition ratio was evaluated in percent by comparing the increase of transmission rate caused by the addition of adenosin-5'-diphosphate to platelet rich plasma of the control group (no medication) with that caused on the groups administered with an ascochlorin derivative which is calculated for 100.

[4] = Toxicity by continuous administration for 30 days (body weight, deaths); format: in vivo, Wister strain male rats; conditions: rat, 50 mg/kg oral once a day
Protocol: Wister strain male rats weighing 150 ± 20 g were divided into groups of 10 members each, and each group was orally administered with 4-O-methylascochlorin as a suspension in 2% gum arabic aqueous solution in a predetermined dose once a day for 30 days, and the increase in body weight thereof was observed each day that the administration continued. As controls, ascochlorin (50 mg/kg/day) and ethyl-α-(p-chlorophenoxy) isobutylate (500 mg/kg/day) were used. The results are shown in the graph in FIG. 2.

[5] = ascochlorin, background statement; cited from earlier work
Lipid in liver and aorta = test: Hypolipidemic activity: change of lipid level in organs and aorta abdominalis, 30 days, high-fat feed; format: in vivo, Wister strain rats; conditions: rat, 10.0 mg/kg oral
Protocol: Wister strain rats weighing 150 ± 20 g were divided into groups of 10 members each and bred with high-fat feed, the same as that used in Example 1. The rats were orally administered ascochlorin, 4-O-methylascochlorin or ethyl-α-(p-chlorophenoxy) isobutylate in a predetermined dose every morning for 30 days. Six hours after the last administration, liver and aorta of each rat were taken out and lipid level in the organs of each of the rats were determined. Lipid present in the liver and aorta was extracted with methanol-chloroform (1:1) by allowing it to stand overnight and the extract was assayed as to lipid level.

[6] = 10.0 mg/kg oral, average ± standard error

Structure (SMILES): CC(/C=C/[C@@]1(C)[C@H](C)CCC(=O)[C@@H]1C)=C\Cc1c(O)c(Cl)c(C)c(C=O)c1O [ascochlorin, reference compound]
- increase in body weight [1]: increased only slightly in body weight
- Cholesterol in serum (Cholesterol in serum): 101.3 mg/dL
- toxicity [2]: strong in toxicity
- Serum Cholesterol, increasing or reducing ratio based on the control (Serum Lipid; 10.0 mg/kg oral): -8.8
- Serum Free fatty acid, increasing or reducing ratio based on the control (Serum Lipid; 10.0 mg/kg oral): -4.0
- Serum Phospholipid, increasing or reducing ratio based on the control (Serum Lipid; 10.0 mg/kg oral): -4.5
- Serum Triglyceride, increasing or reducing ratio based on the control (Serum Lipid; 10.0 mg/kg oral): -10.0
- Serum β-Lipoprotein, increasing or reducing ratio based on the control (Serum Lipid; 10.0 mg/kg oral): -5.6
- Serum Cholesterol (Serum Lipid; [6]): 97.4 ± 4.8 mg/dL
- Serum Free fatty acid (Serum Lipid; [6]): 48.3±4.7 μ eq./dl
- Serum Phospholipid (Serum Lipid; [6]): 130.1 ± 8.4 mg/dL
- Serum Triglyceride (Serum Lipid; [6]): 72.0 ± 13.2 mg/dL
- Serum β-Lipoprotein (Serum Lipid; [6]): 720 ± 114 mg/dL
- lowering of lipids in serum, liver and aorta (such effects) (Serum Lipid; oral, groups of Tables IV and V): such effects were not observed
- LD50 (Acute toxicity, mouse; ip, female): 68 mg/kg
- LD50 (Acute toxicity, mouse; ip, male): 102 mg/kg
- LD50 (Acute toxicity, mouse; po, female): > 5000 mg/kg
- LD50 (Acute toxicity, mouse; po, male): > 5000 mg/kg
- LD50 (Acute toxicity, rat; ip): 258 mg/kg
- LD50 (Acute toxicity, rat; oral): > 7000 mg/kg
- known activities [3]: anti-viral, anti-tumor, anti-bacterial and sedative activities and, further, cholesterol-lowering activity
- Aggregation Inhibition Ratio (blood platelet): 66.8%
- increase in body weight ([4]; 50 mg/kg): little or no increase in body weight; also recorded: lost weight
- rats died during the test period ([4]; group of 10): three
- hypolipidemic activity [5]: inadequate in its hypolipidemic activity
- Cholesterol in Liver, increasing or reducing ratio based on the control (Lipid in liver and aorta): +6.5
- Cholesterol in Tunica intima of aorta abdominalis, increasing or reducing ratio based on the control (Lipid in liver and aorta): -4.0
- Phospholipid in Liver, increasing or reducing ratio based on the control (Lipid in liver and aorta): -1.0
- Triglyceride in Liver, increasing or reducing ratio based on the control (Lipid in liver and aorta): -7.3
- Cholesterol in Liver (Lipid in liver and aorta; average ± standard error): 36.2 ± 3.5 mg/g
- Phospholipid in Liver (Lipid in liver and aorta; average ± standard error): 69.5 ± 4.2 mg/g
- Triglyceride in Liver (Lipid in liver and aorta; average ± standard error): 20.2 ± 2.5 mg/g
